Measured values taken from patent US20090258873A1, “Novel tetrahydropyridothiophenes” (priority 2005, published 2009).

What was measured:
[1] = tested on: RKO (RKOp27) human colon adenocarcinoma cells; experiment: Alamar Blue cell viability assay, anti-proliferative/cytotoxic activity on proliferating RKOp27 cells; format: cell-based; details: no Ponasterone A, 72 hours incubation, read-out: IC50 RKO p27 uninduced (proliferating)
Method: The anti-proliferative I cytotoxic activity of the compounds described herein, can be tested on subclones of RKO (RKOp27) human colon adenocarcinoma cells (Schmidt et al., Oncogene 19, 2423-2429; 2000) using the Alamar Blue cell viability assay (described in O'Brien et al. Eur J Biochem 267, 5421-5426, 2000). The compounds are dissolved as 20 mM solutions in dimethylsulfoxide (DMSO) and subsequently diluted in semi-logarithmic steps. DMSO dilutions are further diluted 1:100 into Dulbecco's modified Eagle's medium (DMEM) containing 10% fetal calf serum to a final concentration twice as much as the final concentration in the test. RKO subclones are seeded into 96 well flat bottom plates at a density of 5000 cells per well in a volume of 50 μl per well. 24 hours after seeding the 50 μl each of the compound dilutions in DMEM medium are added into each well of the 96 Well plate. Each compound dilution is tested as quadruplicates. Wells containing untreated control cells are filled with 50 μl DMEM medium containing 1% DMSO. The cells are then incubated with the substances for 72 hours at 37° C. in a hunified atmosphere containing 5% carbon dioxide. To determine the viability of the cells, 10 μl of an Alamar Blue solution (Biosource) are added and the fluorescence is measured at an extinction of 544 nm and an emission of 590 nm. For the calculation of the cell viability the emission value from untreated cells is set as 100% viability and the emission rates of treated cells are set in relation to the values of untreated cells. Viabilities are expressed as % values.
The corresponding IC50 values of the compounds for anti-proliferative/cytotoxic activity are determined from the concentration-effect curves.
Representative IC50 values for anti-proliferation/cytotoxicity determined in the mentioned assay follow from the following table A, in which the numbers of the compounds correspond to the numbers of the examples.

[2] = tested on: RKO colon adenocarcinoma cells (RKOp27) arrested by ectopic p27Kip1; experiment: Alamar Blue cell viability assay on RKOp27 cells arrested by p27Kip1 expression induced with Ponasterone A (cell cycle specific mode of action); format: cell-based; details: Homo sapiens, RKOp27 cells arrested by p27Kip1 induced with 10 μM Ponasterone A, 72 hours incubation, read-out: IC50 RKO p27 induced (arrested)
Method: To determine the cell cycle specific mode of action, subclones of RKO colon adenocarcinoma cells (RKOp27 or RKOp21 as described by Schmidt et al. in Oncogene 19, 2423-2429; 2000) are seeded into 96 well flat bottom plates at a density of 15000 cells per well in a volume of 50 μl per well in DMEM growth medium with 10% FCS containing 10 μM Ponasterone A. 24 hours after seeding the 50 μl each of the compound dilutions in DMEM medium are added into each well of the 96 Well plate. Each compound dilution is tested as quadruplicates. Wells containing untreated control cells are filled with 50 μl DMEM medium containing 1% DMSO. The cells are then incubated with the substances for 72 hours at 37° C. in a humidified atmosphere containing 5% carbon dioxide. To determine the viability of the cells, 10 μl of an Alamar Blue solution (Biosource) are added and the fluorescence was measured at an extinction of 544 nm and an emission of 590 nm. For the calculation of the cell viability the emission value from untreated cells is set as 100% viability and the emission rates of treated cells are set in relation to the values of untreated cells. Viabilities are expressed as % values. Viability is compared of proliferating cells grown in the absence of the inducer Ponasterone A, versus viability of cells arrested by the expression of ectopic p27Kip1 induced by Ponasterone A.

Structure (SMILES) | IC50 [2] | IC50 [1]
CC(CC(=O)Nc1sc2c(c1C#N)CCN(C(=O)Cc1ccccn1)C2)c1ccccc1 (racemic) [Example 22, (RS)—N-[3-Cyano-6-(2-pyridin-2-yl-ethanoyl)-4,5,6,7-tetrahydro-thieno[2,3-c]pyridin-2-yl]-3-phenyl-butyramide] | > 100 µM | ≤ 0.3 µM
CC(CC(=O)Nc1sc2c(c1C#N)CCN(C(=O)Cc1cccnc1)C2)c1ccccc1 (racemic) [Example 23, (RS)—N-[3-Cyano-6-(2-pyridin-3-yl-ethanoyl)-4,5,6,7-tetrahydro-thieno[2,3-c]pyridin-2-yl]-3-phenyl-butyramide] | > 100 µM | ≤ 0.3 µM
CC(CC(=O)Nc1sc2c(c1C#N)CCN(C(=O)Cc1ccncc1)C2)c1ccccc1 (racemic) [Example 24, (RS)—N-[3-Cyano-6-(2-pyridin-4-yl-ethanoyl)-4,5,6,7-tetrahydro-thieno[2,3-c]pyridin-2-yl]-3-phenyl-butyramide] | > 100 µM | ≤ 0.3 µM
CC(CC(=O)Nc1sc2c(c1C#N)CCN(C(=O)CCc1cccnc1)C2)c1ccccc1 (racemic) [Example 25, (RS)—N-[3-Cyano-6-(3-pyridin-3-yl-propanoyl)-4,5,6,7-tetrahydro-thieno[2,3-c]pyridin-2-yl]-3-phenyl-butyramide] | > 100 µM | 0.3 to 2 µM
CC(CC(=O)Nc1sc2c(c1C#N)CCN(C(=O)Cn1ccnc1)C2)c1ccccc1 (racemic) [Example 26] | > 100 µM | 0.3 to 2 µM
N#Cc1c(NC(=O)CCc2ccccc2)sc2c1CCN(C(=O)CCc1cccnc1)C2 [Example 1, N-[3-Cyano-6-(3-pyridn3-yl-propanoyl)-4,5,6,7-tetrahydro-thieno[2,3-c]pyridin-2-yl]-3-phenyl-propionamide] | > 100 µM | 0.3 to 2 µM
N#Cc1c(NC(=O)CCc2ccccc2)sc2c1CCN(C(=O)Cc1cccnc1)C2 [Example 2, N-[3-Cyano-6-(2-pyridin-3-yl-ethanoyl)-4,5,6,7-tetrahydro-thieno[2,3-]pyridin-2-yl]-3-phenyl-propionamide] | > 100 µM | ≤ 0.3 µM
N#Cc1c(NC(=O)CCc2ccccc2)sc2c1CCN(C(=O)Cc1ccccn1)C2 [Example 3, N-[3-Cyano-(2-pyridin-2-yl-ethanoyl)-4,5,6,7-tetrahydro-thieno[2,3-]pyridin-2-yl]-3-phenyl-propionamide] | > 100 µM | ≤ 0.3 µM
COCC(=O)N1CCc2c(sc(NC(=O)CCc3ccccc3)c2C#N)C1 [Example 4, N-[3-Cyano-6-(2-methoxy-ethanoyl)-4,5,6,7-tetrahydro-thieno[2,3-c]pyridin-2-yl]-3-phenyl-propionamide] | > 100 µM | ≤ 0.3 µM
COCCOCC(=O)N1CCc2c(sc(NC(=O)CCc3ccccc3)c2C#N)C1 [Example 5] | > 100 µM | 0.3 to 2 µM
CC(=O)OCC(=O)N1CCc2c(sc(NC(=O)CCc3ccccc3)c2C#N)C1 [Example 7, Acetic acid 2-[3-cyano-2-(3-phenyl-propanoylamino)-4,7-dihydro-5H-thieno[2,3-c]pyridin-6-yl]-2-oxo-ethyl ester] | > 100 µM | ≤ 0.3 µM
COCCOCC(=O)N1CCc2c(sc(NC(=O)CCc3ccco3)c2C#N)C1 [Example 9, N-{3-Cyano-6-[2-(2-methoxy-ethoxy)-ethanoyl]-4,5,6,7-tetrahydro-thieno[2,3-c]pyridin-2-yl}-3-furan-2-yl-propionamide] | > 100 µM | ≤ 0.3 µM
N#Cc1c(NC(=O)CCc2ccco2)sc2c1CCN(C(=O)Cc1ccccn1)C2 [Example 10, N-[3-Cyano-6-(2-pyridin-2-yl-ethanoyi)-4,5,6,7-tetrahydro-thieno[2,3-c]pyridin-2-yl]-3-furan-2-yl-propionamide] | > 100 µM | ≤ 0.3 µM
N#Cc1c(NC(=O)CCc2ccco2)sc2c1CCN(C(=O)Cc1cccnc1)C2 [Example 11, N-[3-Cyano-6-(2-pyridin-3-yl-ethanoyl)-4,5,6,7-tetrahydro-thieno[2,3-c]pyridin-2-yl]-3-furan-2-yl-propionamide] | > 100 µM | ≤ 0.3 µM
N#Cc1c(NC(=O)CCc2ccco2)sc2c1CCN(C(=O)CCc1cccnc1)C2 [Example 12, N-[3-Cyano-4-6-(3-pyridin-3-yl-propanoyl)-4,5,6,7-tetrahydro-thieno[2,3-c]pyridin-2-yl]-3-furan-2-yl-propionamide] | > 100 µM | ≤ 0.3 µM
COCC(=O)N1CCc2c(sc(NC(=O)CCc3ccco3)c2C#N)C1 [Example 13, N-[3-Cyano-6-(2-methoxy-ethanoyl)-4,5,6,7-tetrahydro-thieno[2,3-c]pyridin-2-yl]-3-furan-2-yl-propionamide] | > 100 µM | ≤ 0.3 µM
CCCC(=O)N1CCc2c(sc(NC(=O)CCc3ccco3)c2C#N)C1 [Example 14, N-(6-Butyryl-3-cyano-4,5,6,7-tetrahydro-thieno[2,3-c]pyridin-2-yl)-3-furan-2-yl-propionamide] | > 100 µM | ≤ 0.3 µM

Now from value to molecule, other results behind:

IC50 [2] | Structure (SMILES) | IC50 [1]
> 100 µM | CCCC(=O)N1CCc2c(sc(NC(=O)CC(C)c3ccccc3)c2C#N)C1 (racemic) [Example 27, (RS)—N-(6-Butyryl-3-cyano-4,5,6,7-tetrahydro-thieno[2,3-c]pyridin-2-yl)-3-phenyl-butyramide] | 0.3 to 2 µM
> 100 µM | CC(CC(=O)Nc1sc2c(c1C#N)CCN(C(=O)CCc1ccccn1)C2)c1ccccc1 (racemic) [Example 29, (RS)—N-[3-Cyano-6-(3-pyridin-2-yl-propanoyl)-4,5,6,7-tetrahydro-thieno[2,3-c]pyridin-2-yl]-3-phenyl-butyramide] | 0.3 to 2 µM
> 100 µM | CC(CC(=O)Nc1sc2c(c1C#N)CCN(C(=O)CCn1ccnc1)C2)c1ccccc1 (racemic) [Example 31] | 0.3 to 2 µM
≥ 10 µM | Cc1nccn1CCC(=O)N1CCc2c(sc(NC(=O)CC(C)c3ccccc3)c2C#N)C1 (racemic) [Example 32, (RS)—N-{3-Cyano-6-[3-(2-methyl-imidazol-1-yl)-propanoyl]-4,5,6,7-tetrahydro-thieno[2,3-c]pyridin-2-yl}-3-phenyl-butyramide] | 0.3 to 2 µM
≥ 10 µM | CC(CC(=O)Nc1sc2c(c1C#N)CCN(C(=O)CCc1nccn1C)C2)c1ccccc1 (racemic) [Example 34, (RS)—N-{3-Cyano-6-[3-(1-methyl-1H-imidazol-2-yl)-propanoyl]-4,5,6,7-tetrahydro-thieno[2,3-c]pyridin-2-yl}-3-phenyl-butyramide] | ≤ 0.3 µM
≥ 10 µM | CC(CC(=O)Nc1sc2c(c1C#N)CCN(C(=O)CCc1ccncc1)C2)c1ccccc1 (racemic) [Example 36, (RS)—N-[3-Cyano-6-(3-pyridin-4-yl-propanoyl)-4,5,6,7-tetrahydro-thieno[2,3-c]pyridin-2-yl]-3-phenyl-butyramide] | 0.3 to 2 µM
≥ 40 µM | Cc1nccn1CC(=O)N1CCc2c(sc(NC(=O)CC(C)c3ccccc3)c2C#N)C1 (racemic) [Example 37, (RS)—N-{3-Cyano-6-[2-(2-methyl-imidazo-1-yl)-ethanoyl]-4,5,6,7-tetrahydro-thieno[2,3-c]pyridin-2-yl}-3-phenyl-butyramide] | ≤ 0.3 µM
≥ 40 µM | Cc1cn(CC(=O)N2CCc3c(sc(NC(=O)CC(C)c4ccccc4)c3C#N)C2)cn1 (racemic) [Example 40, (RS)—N-{3-Cyano-6-[2-(4-methyl-imidazol-yl)-ethanoyl]-4,5,6,7-tetrahydro-thieno[2,3-c]pyridin-2-yl}-3-phenyl-butyramide] | 0.3 to 2 µM
≥ 10 µM | Cc1cn(CC(=O)N2CCc3c(sc(NC(=O)CC(C)c4ccccc4)c3C#N)C2)c(C)n1 (racemic) [Example 42, (RS)—N-{3-Cyano-6-[2-(2,4-dimethyl-midazol-1-yl)-ethanoy]-4,5,6,7-tetrahydro-thieno[2,3-c]pyridin-2-yl}-3-phenyl-butyramide] | 0.3 to 2 µM
